Where no end group is shown, it is not given here.
B1: KFK KFK KFK KFK KFK KFK KFK KFK KFK KFK KFK KFK KFK KFK KFK KFK KFK KFK KFK KFK KFK (peptide)
chain: KFKKFKKFKKFKKFKKFKKFKKFKKFKKFKKFKKFKKFKKFKKFKKFKKFKKFKKFKKFKKFK
modifications: Periodic Peptide
B2: FKA FKA FKA FKA FKA FKA FKA FKA FKA FKA FKA FKA FKA FKA FKA FKA FKA FKA FKA FKA FKA (peptide)
chain: FKAFKAFKAFKAFKAFKAFKAFKAFKAFKAFKAFKAFKAFKAFKAFKAFKAFKAFKAFKAFKA
modifications: Periodic Peptide
B3: KFAK KFAK KFAK KFAK KFAK KFAK KFAK KFAK KFAK KFAK KFAK KFAK KFAK KFAK KFAK KFAK KFAK (peptide)
chain: KFAKKFAKKFAKKFAKKFAKKFAKKFAKKFAKKFAKKFAKKFAKKFAKKFAKKFAKKFAKKFAKKFAK
modifications: Periodic Peptide

Columns and labels:
P. aeruginosa ATCC 15442 = experiment: HMARQ biocidal kill activity; type: cell-based; conditions: P. aeruginosa ATCC 15442 (gram−)
Protocol: (§1) Biocide efficacy protocols were improved by reducing sample size, organizing the test material into an array format, implementing most probable number (MPN) quantitation and using multi-channel liquid handling equipment. We call the new method “high-throughput microanalysis and rapid quantitation” or “HMARQ.” HMARQ is directly applicable to current industrial efficacy tests such as multi-cycle preservation challenge or time course disinfection tests.
(§2) HMARQ is performed in a high throughput plate, such as 96-well microtiter plates. Typical sample volumes have been reduced down to 200 to 300 μL, but can be reduced further if desired. In these samples, no more than 10% of the total volume will be composed of the biocide and organism solution, and all non-matrix additions are normalized for all samples.
(§3) The sample matrix is first inoculated with the desired concentration of microorganisms. Inoculated sample matrix is then added to the 96-well assay block containing the biocide(s) under study. Each sample block contains biocide treated samples and untreated control samples (lacking biocide). Once the samples are prepared, the entire block of samples is mixed by vortexing until each sample is homogenous. In general, the study starts once mixing is complete, and samples are removed as required for the analysis. When Kill Time testing (rate of biocide activity) is performed, the microorganisms are added after biocide addition to the samples, allowing for rapid mixing and analysis.
(§4) Bacterial concentration (CFU/mL) is determined using the most probable number method (MPN). The contaminated solution is serially diluted until the “no growth” endpoint is reached. The endpoint represents the MPN and is expressed in units of the bacterial concentration. A serial 1:10 dilution will yield a bacterial concentration resolution of 1 log and the log reduction is determined by comparing the concentration of organisms in a treated sample to the concentration of organisms in untreated samples. For example, if a sample requires four 1:10 dilutions before bacterial growth is lost then the MPN for bacterial concentration in the sample is less than or equal to 1×10^4 CFU/mL (1E4). […] This method of enumeration is generally applicable to all non-filamentous microorganisms.
(§5) Media included Tryptic Soy Broth (TSB) for bacteria and Sabouraud Dextrose Broth (SDB) for fungi. These are available commercially and prepared according to the manufacturers instructions. Indicator medium was TSB/R for bacteria and SDB/R for fungi. These were made by addition of 50 μM filter sterilized Resazurin to the sterilized and cooled medium. Tryptic Soy agar plates (TSA) and SDA slants were used to provide inoculant for bacterial and fungal cultures. The indicator dye appeared pink or white when bacterial growth was present.
(§6) Using the HMARQ test described above, periodic peptides were generated and tested for Kill Activity. In this experiment, a broader range of peptidezs were tested for activity. Units are expressed as ppm (μg/mL) needed for 3.5 log kill at 15 min or 24 hour and the results are shown below.

Staph. aureus ATCC 6538 = experiment: HMARQ biocidal kill activity; type: cell-based; conditions: Staph. aureus ATCC 6538 (gram+)
Protocol: as §1, §2, §3, §4, §5, §6

P. aeruginosa ATCC 10145 = conditions: ATCC 10145
Protocol: The bacteria tested were P. aeruginosa American Type Culture Collection Number (ATCC) 10145, E. coli ATCC 2592, and S. aureus (methicillin reseistant) ATTC 33591.
All experiments were compared to bacterial growth under optimal growth conditions (37° C., pH 7.0, absence of additional salt, growth media—referred to as standard growth conditions). In each plate, no growth control (media alone), positive growth control (bacteria with no test sample), positive antimicrobial controls (agents with known antimicrobial activity) and test compounds were tested.
The plates were incubated overnight, and the relative percent growth determined by optical density at 620 nm (OD620) using a […] […] PLUS™. […] All samples were tested in duplicate and each assay was repeated at least twice. […] IC50 and MIC are reported in μg/ml.

Molecule	ppm needed for 3.5 log kill at 15 min (P. aeruginosa ATCC 15442)	ppm needed for 3.5 log kill at 24 hr (P. aeruginosa ATCC 15442)	ppm needed for 3.5 log kill at 15 min (Staph. aureus ATCC 6538)	ppm needed for 3.5 log kill at 24 hr (Staph. aureus ATCC 6538)	IC50 (P. aeruginosa ATCC 10145)	MIC (P. aeruginosa ATCC 10145)
LK LK LK LK LK LK LK LK LK LK LK LK LK LK LK LK LK LK (LKLKLKLKLKLKLKLKLKLKLKLKLKLKLKLKLKLK; Periodic Peptide) [LK(18)]	16 ppm	31 ppm	8 ppm	16 ppm	–	–
KTK KTK KTK KTK KTK KTK KTK (KTKKTKKTKKTKKTKKTKKTK; Periodic Peptide) [KTK(7)]	31 ppm	31 ppm	250 ppm	8 ppm	–	–
LK LK LK LK LK LK LK LK LK LK LK LK LK LK LK LK LK LK LK LK LK LK LK LK (LKLKLKLKLKLKLKLKLKLKLKLKLKLKLKLKLKLKLKLKLKLKLKLK; Periodic Peptide) [LK(24)]	16 ppm	63 ppm	>500 ppm	>500 ppm	–	–
KFAKKAAKKFAKKAAK [PBF16c, KFAKKAAKKFAKKAAK, reference compound]	–	–	–	–	>250 µg/mL	>250 µg/mL
KFK KFK KFK KFK KFK KFK KFK KFK KFK KFK KFK KFK (KFKKFKKFKKFKKFKKFKKFKKFKKFKKFKKFKKFK; Periodic Peptide) [KFK(12)]	4 ppm	8 ppm	>500 ppm	250 ppm	–	–
FKA FKA FKA FKA FKA FKA FKA FKA FKA FKA FKA FKA FKA FKA FKA FKA FKA (FKAFKAFKAFKAFKAFKAFKAFKAFKAFKAFKAFKAFKAFKAFKAFKAFKA; Periodic Peptide) [FKA(17)]	16 ppm	16 ppm	4 ppm	8 ppm	–	–
LK LK LK LK LK (LKLKLKLKLK; Periodic Peptide) [LK(5)]	62 ppm	62 ppm	>500 ppm	31 ppm	–	–
KGK KGK KGK KGK KGK KGK KGK KGK KGK KGK KGK (KGKKGKKGKKGKKGKKGKKGKKGKKGKKGKKGK; Periodic Peptide) [KGK(11)]	8 ppm	8 ppm	>500 ppm	8 ppm	–	–
H-KFAKKFAKKFAKKAAK-OH [PBF16a, KFAKKFAKKFAKKAAK, reference compound]	–	–	–	–	>250 µg/mL	>250 µg/mL
KFK KFK KFK KFK KFK KFK KFK KFK KFK KFK KFK KFK KFK KFK KFK KFK (KFKKFKKFKKFKKFKKFKKFKKFKKFKKFKKFKKFKKFKKFKKFKKFK; Periodic Peptide) [KFK(16)]	16 ppm	31 ppm	>500 ppm	16 ppm	–	–
H-KFAKKFAKKAAKKAAK-OH [PBF16b, KFAKKFAKKAAKKAAK, reference compound]	–	–	–	–	>250 µg/mL	>250 µg/mL
KGK KGK KGK KGK KGK KGK KGK KGK KGK KGK KGK KGK KGK KGK KGK (KGKKGKKGKKGKKGKKGKKGKKGKKGKKGKKGKKGKKGKKGKKGK; Periodic Peptide) [KGK(15)]	4 ppm	16 ppm	125 ppm	62 ppm	–	–
B1	31 ppm	63 ppm	>500 ppm	250 ppm	–	–
B2	8 ppm	16 ppm	4 ppm	125 ppm	–	–
B3	16 ppm	250 ppm	250 ppm	500 ppm	–	–

Reference: patent US7091185B2, “Periodic antimicrobial peptides” (Dow Global Technologies Inc., priority 2003, dated 2006)
